{
  "source": "patent US20030092686A1",
  "about": "“Method of determining the initial dose of vitamin D compounds” (priority 2000, published 2003)",
  "tested_on": "adult ESRD patients",
  "test": "Double-blind, randomized, 12-week trial of starting dose of paricalcitol injection (baseline PTH/80 vs 0.04 mcg/kg)",
  "assay_type": "in vivo, human",
  "conditions": "for Incidences of Ca × P > 75: 2 consecutive occurrences of CaxP>75; for Median Number of Dose Adjustments: adjustments to achieve the first of 4 consecutive ≧30% decreases from baseline PTH; for Incidence(s) of Hypercalcemia: single episode, Ca>11.5 miligram/deciliter, 3x weekly, 12-week trial; for Median Days to First of 4 ≧ 30% PTH Decreases: statistically significant (P = 0.0306)",
  "description": "A double-blind, randomized, 12-week trial was conducted in 125 adult ESRD patients to determine if a starting dose of paricalcitol injection using baseline PTH/80 was equivalent in the rate of hypercalcemia (single episode, Ca>11.5 miligram/deciliter) compared to the approved initial dose (0.04 mcg/kg, dry weight). Patients were randomized (1:1) to doses by either PTH/80 or 0.04 mcg/kg. Baseline demographics and laboratory values were similar between groups. Dosing occurred 3×weekly per patient hemodialysis schedule. Dose increases of 2 mcg could occur once per 2 weeks; decreases of 2 mcg could occur once per week. Patients completed the study by reducing PTH≧30% from baseline for 4 consecutive weekly measurements, or by having a single incidence of hypercalcemia, or by completing 12 weeks of treatment. The primary analysis was a comparison of the incidence of hypercalcemia between groups. Secondary analyses included the time in days to the first of 4 consecutive≧30% decreases from baseline PTH levels, the difference in the number of dose adjustments to achieve the first of 4 consecutive≧30% decreases from baseline PTH levels, and the difference in the incidence rates of 2 consecutive occurrences of CaxP>75.",
  "key": {"[1]": {"conditions": "initial dose 0.04 mcg/kg dry weight"}},
  "data": [
    {"smiles": "C[C@H](/C=C/[C@H](C)C(C)(C)O)[C@H]1CC[C@H]2/C(=C/C=C3C[C@@H](O)C[C@H](O)C3)CCC[C@]12C", "note": "[paricalcitol injection, Paricalcitol]", "values": [
      {"measurement": "Mean PTH Decrease (SE)", "setting": "[1]", "result": "−193 (24.59) pg/mL"},
      {"measurement": "Incidences of Ca × P > 75", "setting": "[1]", "result": 2},
      {"measurement": "Median Number of Dose Adjustments", "setting": "[1]", "result": 3},
      {"measurement": "Incidence(s) of Hypercalcemia", "setting": "[1]", "result": 0},
      {"measurement": "Median Days to First of 4 ≧ 30% PTH Decreases", "setting": "[1]", "result": 45, "unit": "days"},
      {"measurement": "Mean PTH Decrease (SE)", "setting": "initial dose baseline PTH/80", "result": "−259 (24.01) pg/mL"},
      {"measurement": "Incidences of Ca × P > 75", "setting": "initial dose baseline PTH/80", "result": 5},
      {"measurement": "Median Number of Dose Adjustments", "setting": "initial dose baseline PTH/80", "result": 2},
      {"measurement": "Incidence(s) of Hypercalcemia", "setting": "initial dose baseline PTH/80", "result": 0},
      {"measurement": "Median Days to First of 4 ≧ 30% PTH Decreases", "setting": "initial dose baseline PTH/80", "result": 31, "unit": "days"}
    ]}
  ]
}
